Measured values: PubChem BioAssay (NCI)
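Where inhibition never reached the appropriate level, the endpoint shown equals the highest concentration tested. Otherwise, values were interpolated linearly from a five-concentration, 48-hour dose response in 96-well plates. GI50 marks 50% less growth. Definition used: TGI = concentration required for complete inhibition of growth.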

How the values were obtained:
Assay in all cases: NCI tumour cell line growth inhibition, 48 h
786-0 renal = system: 786-0 renal
A498 renal = system: A498 renal
A549 NSCLC = system: A549 NSCLC
ACHN renal = system: ACHN renal
BT-549 breast = system: BT-549 breast
CAKI-1 renal = system: CAKI-1 renal
CCRF-CEM leukemia = system: CCRF-CEM leukemia
DU-145 prostate = system: DU-145 prostate
EKVX NSCLC = system: EKVX NSCLC
HCC-2998 colon = system: HCC-2998 colon
HCT-116 colon = system: HCT-116 colon
HCT-15 colon = system: HCT-15 colon
HL-60(TB) leukemia = system: HL-60(TB) leukemia
HOP-62 NSCLC = system: HOP-62 NSCLC
HOP-92 NSCLC = system: HOP-92 NSCLC
HS 578T breast = system: HS 578T breast
HT29 colon = system: HT29 colon
IGROV1 ovarian = system: IGROV1 ovarian
KM12 colon = system: KM12 colon
LOX IMVI melanoma = system: LOX IMVI melanoma
M14 melanoma = system: M14 melanoma
MALME-3M melanoma = system: MALME-3M melanoma
MCF7 breast = system: MCF7 breast
MDA-MB-231 breast = system: MDA-MB-231 breast
MDA-MB-435 = system: MDA-MB-435
MOLT-4 leukemia = system: MOLT-4 leukemia
NCI-H226 lung = system: NCI-H226 lung
NCI-H23 lung = system: NCI-H23 lung
NCI-H460 lung = system: NCI-H460 lung
NCI-H522 lung = system: NCI-H522 lung
NCI/ADR-RES ovarian = system: NCI/ADR-RES ovarian
OVCAR-3 ovarian = system: OVCAR-3 ovarian
OVCAR-4 ovarian = system: OVCAR-4 ovarian
OVCAR-5 ovarian = system: OVCAR-5 ovarian
OVCAR-8 ovarian = system: OVCAR-8 ovarian
PC-3 prostate = system: PC-3 prostate
RPMI-8226 leukemia = system: RPMI-8226 leukemia
RXF 393 renal = system: RXF 393 renal
SF-268 CNS = system: SF-268 CNS
SF-539 CNS = system: SF-539 CNS
SK-MEL-2 melanoma = system: SK-MEL-2 melanoma
SK-MEL-28 melanoma = system: SK-MEL-28 melanoma
SK-MEL-5 melanoma = system: SK-MEL-5 melanoma
SK-OV-3 ovarian = system: SK-OV-3 ovarian
SN12C renal = system: SN12C renal
SNB-19 CNS = system: SNB-19 CNS
SNB-75 CNS = system: SNB-75 CNS
SR leukemia = system: SR leukemia
SW-620 colon = system: SW-620 colon
T-47D breast = system: T-47D breast
TK-10 renal = system: TK-10 renal
U251 CNS = system: U251 CNS
UACC-257 melanoma = system: UACC-257 melanoma
UACC-62 melanoma = system: UACC-62 melanoma
UO-31 renal = system: UO-31 renal

Clc1ccc(C(Cn2ccnc2)OCc2ccsc2Cl)c(Cl)c1 (centres undefined)
GI50 (786-0 renal): 2970 nM | TGI (786-0 renal): 9.89 µM | GI50 (A498 renal): 2330 nM | TGI (A498 renal): 13.9 µM | GI50 (A549 NSCLC): 3.12 µM | TGI (A549 NSCLC): 14.2 µM | GI50 (ACHN renal): 4.17 µM | TGI (ACHN renal): 15 µM | GI50 (BT-549 breast): 2920 nM | TGI (BT-549 breast): 9.01 µM | GI50 (CAKI-1 renal): 2050 nM | TGI (CAKI-1 renal): 7.36 µM | GI50 (CCRF-CEM leukemia): 2400 nM | TGI (CCRF-CEM leukemia): 7.74 µM | GI50 (DU-145 prostate): 7.69 µM | TGI (DU-145 prostate): 20.6 µM | GI50 (EKVX NSCLC): 2510 nM | TGI (EKVX NSCLC): 13.4 µM | GI50 (HCC-2998 colon): 2730 nM | TGI (HCC-2998 colon): 9.46 µM | GI50 (HCT-116 colon): 2840 nM | TGI (HCT-116 colon): 10.6 µM | GI50 (HCT-15 colon): 3.95 µM | TGI (HCT-15 colon): 14.2 µM | GI50 (HL-60(TB) leukemia): 1820 nM | TGI (HL-60(TB) leukemia): 4.96 µM | GI50 (HOP-62 NSCLC): 4.92 µM | TGI (HOP-62 NSCLC): 16.9 µM | GI50 (HOP-92 NSCLC): 1600 nM | TGI (HOP-92 NSCLC): 5.93 µM | GI50 (HS 578T breast): 4.44 µM | TGI (HS 578T breast): > 100 µM | GI50 (HT29 colon): 2730 nM | TGI (HT29 colon): 9.34 µM | GI50 (IGROV1 ovarian): 3.15 µM | TGI (IGROV1 ovarian): 14 µM | GI50 (KM12 colon): 3.01 µM | TGI (KM12 colon): 13.5 µM | GI50 (LOX IMVI melanoma): 2510 nM | GI50 (M14 melanoma): 2720 nM | TGI (M14 melanoma): 8.27 µM | GI50 (MALME-3M melanoma): 2620 nM | TGI (MALME-3M melanoma): 8.62 µM | GI50 (MCF7 breast): 3.24 µM | TGI (MCF7 breast): 14.4 µM | GI50 (MDA-MB-231 breast): 4.34 µM | TGI (MDA-MB-231 breast): 18.6 µM | GI50 (MDA-MB-435): 2160 nM | TGI (MDA-MB-435): 5.59 µM | GI50 (MOLT-4 leukemia): 2400 nM | TGI (MOLT-4 leukemia): 10.5 µM | GI50 (NCI-H226 lung): 5.62 µM | TGI (NCI-H226 lung): 30.7 µM | GI50 (NCI-H23 lung): 2180 nM | TGI (NCI-H23 lung): 8.77 µM | GI50 (NCI-H460 lung): 2840 nM | TGI (NCI-H460 lung): 10.1 µM | GI50 (NCI-H522 lung): 2700 nM | TGI (NCI-H522 lung): 9.52 µM | GI50 (NCI/ADR-RES ovarian): 1910 nM | TGI (NCI/ADR-RES ovarian): 5.71 µM | GI50 (OVCAR-3 ovarian): 5.11 µM | TGI (OVCAR-3 ovarian): 16.4 µM | GI50 (OVCAR-4 ovarian): 2340 nM | TGI (OVCAR-4 ovarian): 12.7 µM | GI50 (OVCAR-5 ovarian): 4.91 µM | TGI (OVCAR-5 ovarian): 18.2 µM | GI50 (OVCAR-8 ovarian): 3.05 µM | TGI (OVCAR-8 ovarian): 14.3 µM | GI50 (PC-3 prostate): 2070 nM | TGI (PC-3 prostate): 7.62 µM | GI50 (RPMI-8226 leukemia): 1810 nM | TGI (RPMI-8226 leukemia): 5.53 µM | GI50 (RXF 393 renal): 3.17 µM | TGI (RXF 393 renal): 12.8 µM | GI50 (SF-268 CNS): 4.73 µM | TGI (SF-268 CNS): 30 µM | GI50 (SF-539 CNS): 4.23 µM | TGI (SF-539 CNS): 14.9 µM | GI50 (SK-MEL-2 melanoma): 2400 nM | TGI (SK-MEL-2 melanoma): 5.67 µM | GI50 (SK-MEL-28 melanoma): 4.18 µM | TGI (SK-MEL-28 melanoma): 15.3 µM | GI50 (SK-MEL-5 melanoma): 1910 nM | TGI (SK-MEL-5 melanoma): 4.21 µM | GI50 (SK-OV-3 ovarian): 5.08 µM | TGI (SK-OV-3 ovarian): 16.8 µM | GI50 (SN12C renal): 4.74 µM | TGI (SN12C renal): 18.7 µM | GI50 (SNB-19 CNS): 5.41 µM | TGI (SNB-19 CNS): 20.6 µM | GI50 (SNB-75 CNS): 2320 nM | TGI (SNB-75 CNS): 8.22 µM | GI50 (SR leukemia): 2280 nM | TGI (SR leukemia): 7.62 µM | GI50 (SW-620 colon): 3.27 µM | TGI (SW-620 colon): 12.3 µM | GI50 (T-47D breast): 4.04 µM | TGI (T-47D breast): 16.9 µM | GI50 (TK-10 renal): 3.31 µM | TGI (TK-10 renal): 11.2 µM | GI50 (U251 CNS): 2790 nM | TGI (U251 CNS): 11.2 µM | GI50 (UACC-257 melanoma): 3.01 µM | TGI (UACC-257 melanoma): 11.8 µM | GI50 (UACC-62 melanoma): 3.72 µM | TGI (UACC-62 melanoma): 14.3 µM | GI50 (UO-31 renal): 2810 nM | TGI (UO-31 renal): 11.1 µM
